Experimental data reported in patent US8957049B2, “Inhibitors of fatty acid amide hydrolase” (Infinity Pharmaceuticals, Inc., priority 2008, dated 2015).

biological target: T1, human FAAH (Homo sapiens, UniProt O00519); experiment: Human FAAH biochemical inhibition assay (AMC arachidonoyl amide fluorescence); conditions: class given in each Example, read-out: Activity (Ki, inhibition of human FAAH)
T1 construct: host or cells: COS-7 cells, transient transfection (FuGENE 6); 13,000 g membrane fraction solubilised in 1% Triton X-100
T1 sequence (O00519 1-579): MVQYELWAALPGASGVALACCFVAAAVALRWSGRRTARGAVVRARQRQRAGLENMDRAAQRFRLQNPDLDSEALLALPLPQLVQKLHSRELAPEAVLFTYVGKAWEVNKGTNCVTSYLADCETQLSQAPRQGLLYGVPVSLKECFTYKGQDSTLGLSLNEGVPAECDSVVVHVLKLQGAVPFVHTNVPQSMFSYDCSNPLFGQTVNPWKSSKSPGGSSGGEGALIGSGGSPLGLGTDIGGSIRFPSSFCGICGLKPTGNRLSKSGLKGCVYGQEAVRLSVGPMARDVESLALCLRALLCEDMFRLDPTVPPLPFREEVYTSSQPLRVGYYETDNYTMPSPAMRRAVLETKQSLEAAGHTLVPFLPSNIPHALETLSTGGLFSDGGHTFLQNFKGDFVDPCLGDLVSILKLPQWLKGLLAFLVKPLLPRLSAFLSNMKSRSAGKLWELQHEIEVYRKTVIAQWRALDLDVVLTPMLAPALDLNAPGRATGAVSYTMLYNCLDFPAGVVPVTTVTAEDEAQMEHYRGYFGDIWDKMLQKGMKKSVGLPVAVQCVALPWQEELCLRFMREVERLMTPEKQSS
Protocol: Exemplary compounds are set forth in the Examples provided below. Compounds were assayed as inhibitors of human FAAH using the method described in detail in Example 286.
The following assays may be used to determine the inhibition of FAAH by the compounds of the present invention: (1) a fluorescence-based assay for fatty acid amide hydrolase compatible with high-throughput screening as described in Manjunath et al., Analytical Biochemistry (2005) 343:143-151; and (2) a high-throughput screening for the discovery of inhibitors of fatty acid amide hydrolase using a microsome-based fluorescent assay. Wang et al., Biomolecular Screening (2006) 1-9.
COS-7 cells were split the day before, 1:5 into 150 mm×25 mm cell culture dishes (Corning Inc., Cat. No. 430599). Transient transfection took place at 30-40% confluency according to FuGENE 6 Transfection Reagent (Roche, Cat. No. 11814 443 001).
The FuGENE transfection 6 reagent (45 uL) was added to 1410 μL of media (DMEM, serum free without pen/strep) in a 15 mL conical tube and incubated at room temp for 5 minutes, followed by the addition of FAAH plasmid DNA (15 μg) (OriGene Cat. No. TC119221, Genbank Accession No. NM_001441.1, 0.67 ug/uL) and a further incubation of 15 minutes at room temperature. The resulting solution was added into one dish of 30-40% confluent COS-7 cells in a drop-wise manner. The COS-7 cell dish was subsequently incubated for 48 hours. The cells are then harvested.
Media was aspirated from the dishes and the cells rinsed with 10 mL PBS. The PBS was removed and 3 mL of PBS added to the dish. The dish was scraped to resuspend the cells, and the subsequent cell suspension collected into a 15 mL conical tube. The cells were pelleted by centrifugation at 1200 rpm for 5 minutes in a bench top centrifuge. PBS was removed and the cell pellet snap frozen in liquid nitrogen and stored at −80° C.
COS-7 Cells—FAAH Purification: • (1) Fractionation: Frozen cell pellets from transient transfections were thawed on ice and resuspended in 12.5 mM Hepes pH 8.0, 100 mM NaCl, 1 mM EDTA (10 mL/0.2 g cell pellet). The pellets were dounce homogenized and then sonicated to produce cell extract. The cell extract was subsequently centrifuged at 1000 g to remove cellular debris. The pellet was discarded and the supernatant centrifuged at 13,000 g for 20 minutes. The pellet contained membrane bound FAAH. The supernatant was discarded and the pellet resolubilized. • (2) Re-solubilization: The fraction of interest, (13,000 g, membrane fraction) was re-suspended in 2.3 mL re-suspension buffer (20 mM Hepes pH 7.8, 10% v/v Glycerol, 1 mM EDTA, 1% Triton X-100) and the sample incubated on ice for 1 hour and then centrifuged to remove any particulate matter. The supernatant containing solubilized human FAAH was aliquoted and snap frozen in liquid nitrogen and stored at −80° C. until use. • (3) Characterization: Protein Concentration determined by Bradford assay. • SDS gel and Western blot to confirm presence of FAAH • FAAH activity assay • Km determination—96-well assay • Linear dependence—96-well assay • Standard compound Ki determination—384-well assay
Rat FAAH biochemical assays were carried out in a 96 well flat bottom black non-treated polystyrene plates (Corning Costar Catalogue #3915). FAAH reaction buffer: 50 mM Hepes (pH 7.5), 1 mM EDTA, 0.2% Triton X-100. FAAH substrate—AMC Arachidonoyl Amide (Cayman Chemicals Company, Catalog #10005098). The reaction was read in an Envision microtiter plate reader [Excitation filter 355 nm (40 nm bandpass); Emmision filter 460 nm (25 nm bandpass)]. The raw fluorescence was plotted on the y axis and the inhibitor concentration on the x axis to give a dose response inhibition curve. The data was fitted to a single site competitive inhibition equation, fixing the Km for the rat and human enzyme to 12 μM and 9 μM respectively. […]

Row | Compound | Ki
1 | CC(C)(C)OC(=O)Nc1cccc(NC(=O)/C=C/c2ccccc2B(O)O)c1 [Compound 113] | > 1000 nM
2 | CN(Cc1ccccc1)C(=O)/C=C/c1ccccc1B(O)O [Compound 114] | 100 to 1000 nM
3 | OB(O)c1ccc(OCc2ccccc2)cc1/C=N/OCc1ccccc1 [Compound 115] | 10 to 100 nM
4 | O=C(CCc1ccccc1)N/N=C/c1ccccc1B(O)O [Compound 116] | > 1000 nM
5 | CC(C)(C)OC(=O)NCC(=O)N/N=C/c1cc(OCc2ccccc2)ccc1B(O)O [Compound 117] | 10 to 100 nM
6 | NCC(=O)N/N=C/c1cc(OCc2ccccc2)ccc1B(O)O [Compound 118] | > 1000 nM
7 | O=C(CCN1C(=O)C=CC1=O)N/N=C/c1cc(OCCc2ccccc2)ccc1B(O)O [Compound 119] | ≤ 10 nM
8 | CC(=O)N/N=C/c1cc(OCCc2ccccc2)ccc1B(O)O [Compound 120] | ≤ 10 nM
9 | O=C(Cc1ccccc1)N/N=C/c1ccccc1B(O)O [Compound 121] | > 1000 nM
10 | O=C(Cc1c[nH]c2ccccc12)N/N=C/c1ccccc1B(O)O [Compound 122] | > 1000 nM
11 | Cc1nc(CC(=O)N/N=C/c2ccccc2B(O)O)cs1 [Compound 123] | > 1000 nM
12 | O=C(Cc1ccccc1)N/N=C/c1cc(OCc2ccccc2)ccc1B(O)O [Compound 124] | 10 to 100 nM
13 | O=C(N/N=C/c1cc(OCc2ccccc2)ccc1B(O)O)c1cccnc1 [Compound 125] | 10 to 100 nM
14 | OB(O)c1ccc(-c2cn(Cc3ccc(C(F)(F)F)cc3)nn2)cc1 [Compound 127] | 100 to 1000 nM
15 | COc1cccc(Cn2cc(-c3ccc(B(O)O)cc3)nn2)c1 [Compound 128] | 10 to 100 nM
16 | Cc1cccc(Cn2cc(-c3ccc(B(O)O)cc3)nn2)c1 [Compound 129] | ≤ 10 nM
17 | OB(O)c1ccc(-c2cn(-c3ccccc3)nn2)cc1 [Compound 130] | 10 to 100 nM
18 | OB(O)c1ccc(-c2cn(-c3ccccc3)nn2)cc1F [Compound 134] | 10 to 100 nM
19 | OB(O)c1ccc(-c2cn(Cc3ccccc3)nn2)cc1F [Compound 137] | 10 to 100 nM
20 | OB(O)c1ccc(-c2cnnn2Cc2ccccc2)cc1F [Compound 138] | 100 to 1000 nM
21 | OB(O)c1ccc(-n2cc(-c3ccccc3)nn2)cc1F [Compound 141] | 10 to 100 nM
22 | OB(O)c1ccc(-n2nncc2-c2ccccc2)cc1F [Compound 142] | 100 to 1000 nM

Row | Compound | Ki
23 | OB(O)c1ccc(-n2cc(-c3ccccc3)nn2)cc1 [Compound 143] | ≤ 10 nM
24 | OB(O)c1ccc(-n2nncc2-c2ccccc2)cc1 [Compound 144] | 10 to 100 nM
25 | COC(=O)C1CC(Cc2ccccc2)ON1Cc1ccc(B(O)O)c(F)c1 (stereo not drawn) [Compound 148] | 10 to 100 nM
26 | OB(O)c1cccc2cccc(COc3cccc(F)c3)c12 [Compound 151] | > 1000 nM
27 | OB(O)c1ccc(C2CC(c3ccccc3)=NO2)cc1 (stereo not drawn) [Compound 152] | ≤ 10 nM
28 | OB(O)c1ccc(-c2cc(-c3ccccc3)no2)cc1 [Compound 156] | ≤ 10 nM
29 | OB(O)c1ccc(C2=NOC(c3ccccc3)C2)cc1 (stereo not drawn) [Compound 159] | ≤ 10 nM
30 | OB(O)c1ccc(-c2cc(-c3ccccc3)on2)cc1 [Compound 160] | ≤ 10 nM
31 | CCCCCC1CC(c2ccc(B(O)O)cc2)=NO1 (stereo not drawn) [Compound 161] | ≤ 10 nM
32 | CCCCCC1(C)CC(c2ccc(B(O)O)cc2)=NO1 (stereo not drawn) [Compound 162] | ≤ 10 nM
33 | CCCC1(c2ccccc2)CC(c2ccc(B(O)O)cc2)=NO1 (stereo not drawn) [Compound 163] | 100 to 1000 nM
34 | CCCCCC1(CCCCC)CC(c2ccc(B(O)O)cc2)=NO1 [Compound 164] | 100 to 1000 nM
35 | OB(O)c1ccc(C2=NOC(c3cccnc3)C2)cc1 (stereo not drawn) [Compound 165] | 10 to 100 nM
36 | OB(O)c1ccc(-c2cc(-c3cccnc3)on2)cc1 [Compound 166] | ≤ 10 nM
37 | CCCC1CC(c2ccccc2B(O)O)=NO1 (stereo not drawn) [Compound 167] | 10 to 100 nM
38 | CCCc1cc(-c2ccccc2B(O)O)no1 [Compound 168] | > 1000 nM
39 | OB(O)c1ccc([C@H]2OC[C@H](c3ccccc3)CO2)cc1F [Compound 173] | ≤ 10 nM
40 | OB(O)c1ccc([C@H]2OC[C@@H](c3ccccc3)CO2)cc1F [Compound 174] | ≤ 10 nM
41 | OB(O)c1ccc([C@H]2OC[C@H](c3ccccc3)CO2)cc1 [Compound 175] | ≤ 10 nM
42 | OB(O)c1ccc([C@H]2OC[C@H](c3ccccc3)O2)cc1 [Compound 179] | ≤ 10 nM
43 | OB(O)c1ccc([C@@H]2OC[C@H](c3ccccc3)O2)cc1 [Compound 180] | ≤ 10 nM
44 | OB(O)c1ccc([C@@H]2OC[C@@H](c3ccccc3)O2)cc1 [Compound 181] | ≤ 10 nM

Row | Compound | Ki
45 | OB(O)c1ccc([C@H]2OC[C@@H](c3ccccc3)O2)cc1 [Compound 182] | ≤ 10 nM
46 | CC/C=C/c1cc(OCCc2ccccc2)ccc1B(O)O [Compound 183] | 10 to 100 nM
47 | OB(O)c1ccc(OCCc2ccccc2)cc1/C=C/CCc1ccccc1 [Compound 184] | 100 to 1000 nM
48 | OB(O)c1ccc2cc(Oc3ccccn3)ccc2c1 [Compound 185] | ≤ 10 nM
49 | OB(O)c1ccc2cc(Oc3cnccn3)ccc2c1 [Compound 186] | ≤ 10 nM
50 | OB(O)c1ccc2nc(Oc3ccccc3)ccc2c1 [Compound 187] | ≤ 10 nM
51 | OB(O)c1ccc2ccc(Oc3ccccc3)nc2c1 [Compound 188] | ≤ 10 nM
52 | COc1cccc(Oc2ccc3cc(B(O)O)ccc3n2)c1 [Compound 189] | ≤ 10 nM
53 | OB(O)c1ccc2nc(OC3CCCC3)ccc2c1 [Compound 190] | ≤ 10 nM
54 | CCCCOc1ccc2cc(B(O)O)ccc2n1 [Compound 191] | ≤ 10 nM
55 | OB(O)c1ccc2nc(OC3CCCCC3)ccc2c1 [Compound 192] | 10 to 100 nM
56 | OB(O)c1ccc2nc(OCc3ccccc3)ccc2c1 [Compound 193] | ≤ 10 nM
57 | CN(C)c1cccc(Oc2ccc3cc(B(O)O)ccc3n2)c1 [Compound 194] | ≤ 10 nM
58 | O=[N+]([O-])c1cccc(Oc2ccc3cc(B(O)O)ccc3n2)c1 [Compound 195] | ≤ 10 nM
59 | OB(O)c1ccc2nc(Oc3ccccc3Cl)ccc2c1 [Compound 196] | ≤ 10 nM
60 | OB(O)c1ccc2nc(Oc3cccc(Cl)c3)ccc2c1 [Compound 197] | ≤ 10 nM
61 | N#Cc1cccc(Oc2ccc3cc(B(O)O)ccc3n2)c1 [Compound 198] | ≤ 10 nM
62 | OB(O)c1ccc2nc(Oc3ccccc3O)ccc2c1 [Compound 199] | ≤ 10 nM
63 | COc1ccccc1Oc1ccc2cc(B(O)O)ccc2n1 [Compound 200] | ≤ 10 nM
64 | OB(O)c1ccc2nc(Oc3ccc(Cl)cc3)ccc2c1 [Compound 201] | ≤ 10 nM
65 | COc1ccc2cc(B(O)O)ccc2n1 [Compound 202] | 10 to 100 nM
66 | CCOc1ccc2cc(B(O)O)ccc2n1 [Compound 203] | 10 to 100 nM
